The test deals with Human eIF4E (aa 28-217) / biotin labeled 4G2 peptide (Homo sapiens (Human), UniProt P06730). Description: Human eIF4E/4G2 binding assay (TR-FRET). Particulars: Human eIF4E/4G2 TR-FRET binding assay; head says IC50, legend says EC50. Put shortly: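 Refolded His-tagged human eIF4E (aa 28-217), 82.5 nM working stock, preincubated 4 h at RT with compounds (10-point 2-fold series) in NaPi pH 6.5 buffer with DTT and gamma globulin. Biotin-4G2 peptide then added for 20 min, followed by Eu-streptavidin/APC-anti-His for 20 min; TR-FRET 665/615 nm ratio normalized, IC50 fitted.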
Chain of Human eIF4E (aa 28-217) / biotin labeled 4G2 peptide (P06730 28-217): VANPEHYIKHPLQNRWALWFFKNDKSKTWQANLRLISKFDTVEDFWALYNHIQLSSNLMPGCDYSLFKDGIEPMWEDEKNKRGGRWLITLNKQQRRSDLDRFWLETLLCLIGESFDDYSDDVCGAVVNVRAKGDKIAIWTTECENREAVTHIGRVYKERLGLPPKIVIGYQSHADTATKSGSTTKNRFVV
In general terms: In TR-FRET formats the signal depends on donor and acceptor labels being close together.
The IC50 is the midpoint of a concentration-inhibition curve. A low value points to greater potency. In the case of `COc1ccccc1CC(CNc1nc(-c2ccc(Cl)c(Cl)c2)c(C2CC2)s1)C(=O)O` (stereo not shown) [I-12], the IC50 fell in the range of 1000 to 10000 nM.
For `CC(C)Cc1sc(NCC(Cc2ccnc(O)c2)C(=O)O)nc1-c1ccc(Cl)c(Cl)c1` (stereo not shown) [I-164], the IC50 fell in the range of 1000 to 10000 nM.
The compound `O=C(O)C(CNc1nc(-c2ccc(Cl)c(Cl)c2)c(C2CC2)s1)Cc1ccccc1` (stereo not shown) [I-11] returned an IC50 of 1000 to 10000 nM.
In the case of `CC(C)Cc1sc(Nc2nccc(Cl)c2C(=O)O)nc1-c1ccc(Cl)c(Cl)c1` [I-242], the IC50 was no more than 1000 nM.
`CC(C)Cc1sc(N(CCC(=O)O)Cc2ccc[nH]2)nc1-c1ccc(Cl)c(Cl)c1` [I-110] had an IC50 of 1000 to 10000 nM.
In turn, `CSc1ccc(-c2nc(N(CCC(=O)O)Cc3ccccc3)sc2CC(C)C)cc1` [I-127] registered a 50% inhibitory concentration (IC50) of 1000 to 10000 nM.
Regarding `CC(C)Cc1sc(N(CCCN)Cc2ccccc2)nc1-c1ccc(Cl)c(Cl)c1` [I-191, N^1-benzyl-N^1-(4-(3,4-dichlorophenyl)-5-isobutylthiazol-2-yl)propane-1,3-diamine], the IC50 lay in the range of 1000 to 10000 nM.
With `CC(C)Cc1sc(N(CCC(=O)O)CC2CCN(C)CC2)nc1-c1ccc(Cl)c(Cl)c1` [I-88], the half-maximal inhibitory concentration (IC50) was greater than 10000 nM.
In turn, `CC(C)Cc1sc(Nc2ccccc2C#N)nc1-c1ccc(Cl)c(Cl)c1` [I-286] registered an IC50 greater than 10000 nM.
The result for `CC(C)c1sc(NCC(Cc2ccc3[nH]ccc3c2)C(=O)O)nc1-c1ccc(Cl)cc1` (stereo not shown) [I-46] reads 1000 to 10000 nM.
Under `CC(C)Cc1sc(N(CCC(=O)O)Cc2ccccc2)nc1-c1ccc(-c2ccc(F)cc2)cc1` [I-101, 3-(benzyl(4-(4′-fluorobiphenyl-4-yl)-5-isobutylthiazol-2-yl)amino)propanoic acid] stands no more than 1000 nM.
The result for `CC(C)Cc1sc(N2CCN(C(=O)c3cccnc3)C(C(=O)O)C2)nc1-c1ccc(Cl)c(Cl)c1` (stereo not shown) [I-250] reads 1000 to 10000 nM; that for `O=C(O)C(CNc1nc(-c2ccc(Cl)c(Cl)c2)c(C2CCCC2)s1)Cc1ccccc1` (stereo not shown) [I-177], no more than 1000 nM.
The compound `CN(C)Cc1sc(N(CCC(=O)O)Cc2ccccc2)nc1-c1ccc(Cl)c(Cl)c1` [I-89, 3-(benzyl(4-(3,4-dichlorophenyl)-5-((dimethylamino)methyl)thiazol-2-yl)amino)propanoic acid] had an IC50 greater than 10000 nM.
`CC(C)Cc1sc(NCC(Cc2ccc(S(N)(=O)=O)cc2)C(=O)O)nc1-c1ccc(Cl)c(Cl)c1` (stereo not shown) [I-176] displayed an IC50 of 1000 to 10000 nM.
As for `CC(C)Cc1sc(N2CCN(C(=O)OC(C)C)C(C(=O)O)C2)nc1-c1ccc(Cl)c(Cl)c1` (stereo not shown) [I-253, 4-(4-(3,4-dichlorophenyl)-5-isobutylthiazol-2-yl)-1-(isopropoxycarbonyl)piperazine-2-carboxylic acid], the IC50 fell in the range of 1000 to 10000 nM.
For the compound `CC(C)Cc1sc(Nc2cccc(C(=O)NCCN)c2)nc1-c1ccc(Cl)c(Cl)c1` [I-218, N-(2-aminoethyl)-3-(4-(3,4-dichlorophenyl)-5-isobutylthiazol-2-ylamino)benzamide], the IC50 is greater than 10000 nM.
The result for `CC(C)Cc1sc(Nc2ccc(F)c(C(=O)O)c2)nc1-c1ccc(Cl)c(Cl)c1` [I-209] reads no more than 1000 nM.
The result for `CC(C)Cc1sc(N(CC(=N)N)Cc2ccccc2)nc1-c1ccc(Cl)c(Cl)c1` [I-231, 2-(benzyl(4-(3,4-dichlorophenyl)-5-isobutylthiazol-2-yl)amino)acetimidamide] reads greater than 10000 nM; that for `CC(C)Cc1sc(NCC(C(=O)O)N(C)C)nc1-c1ccc(Cl)c(Cl)c1` (stereo not shown) [I-116, 3-(4-(3,4-dichlorophenyl)-5-isobutylthiazol-2-ylamino)-2-(dimethylamino)propanoic acid], greater than 10000 nM; that for `CC(C)Cc1sc(N(CCC(=O)N2CCN(C)CC2)Cc2ccccc2)nc1-c1ccc(Cl)c(Cl)c1` [I-133, 3-(benzyl(4-(3,4-dichlorophenyl)-5-isobutylthiazol-2-yl)amino)-1-(4-methylpiperazin-1-yl)propan-1-one], greater than 10000 nM.
Under `CC(C)Cc1sc(NCC(Cc2cccc(C(N)=O)c2)C(=O)O)nc1-c1ccc(Cl)c(Cl)c1` (stereo not shown) [I-167] stands 1000 to 10000 nM; under `CC(C)Cc1sc(N(CCC(=O)O)CCN(C)C)nc1-c1ccc(Cl)c(Cl)c1` [I-72], greater than 10000 nM; under `COc1ccc(-c2nc(Nc3ncc(C(F)(F)F)cc3C(=O)O)sc2CC(C)C)cc1Cl` [I-325], no more than 1000 nM.
On to `CC(C)Cc1sc(NCC(Cc2ccccn2)C(=O)O)nc1-c1ccc(Cl)c(Cl)c1` (stereo not shown) [I-158], for which the IC50 lay in the range of 1000 to 10000 nM.
Compound `O=C(O)c1sc(C2CCCC2)cc1Nc1nc(Cc2ccccc2)c(-c2ccccc2)s1` [I-310] showed an IC50 of no more than 1000 nM.
`CC(C)c1sc(Nc2ccsc2C(=O)NCCN)nc1-c1ccc(Cl)c(Cl)c1` [I-277] showed a concentration for half-maximal inhibition (IC50) of 1000 to 10000 nM.
`CC(C)Cc1sc(N(CCC(=O)O)Cc2ccccc2)nc1-c1cc(Cl)c(Cl)c(Cl)c1` [I-111] displayed an IC50 of no more than 1000 nM.
The compound `COc1cccc(-c2cnc(Nc3nc(-c4ccc(Cl)c(Cl)c4)c(C(C)C)s3)c(C(=O)O)c2)c1` [I-267] had a 50% inhibitory concentration (IC50) of no more than 1000 nM.
As for `CC(C)Cc1sc(N2CCN(C)C(C(=O)O)C2)nc1-c1ccc(Cl)c(Cl)c1` (stereo not shown) [I-86], the IC50 is greater than 10000 nM.
`CC(C)CCc1sc(NCC(Cc2ccccc2)C(=O)O)nc1-c1ccc(Cl)c(Cl)c1` (stereo not shown) [I-180] came in with a half-inhibitory concentration (IC50) of no more than 1000 nM.
Turning to `COc1ccccc1CC(CNc1nc(-c2ccc(Cl)c(Cl)c2)c(CC(C)C)s1)C(=O)O` (stereo not shown) [I-20], the IC50 is no more than 1000 nM.
`CC(C)c1sc(Nc2cc(-c3ccccc3)sc2C(=O)O)nc1-c1ccc(Cl)c(C(F)(F)F)c1` [I-279, 3-(4-(4-chloro-3-(trifluoromethyl)phenyl)-5-isopropylthiazol-2-ylamino)-5-phenylthiophene-2-carboxylic acid] registered a half-inhibitory concentration (IC50) of no more than 1000 nM.
Regarding `CC(C)Cc1sc(N(CCC(=O)O)CCC2CC2)nc1-c1ccc(Cl)c(Cl)c1` [I-106], the IC50 fell in the range of 1000 to 10000 nM.
`CC(C)Cc1sc(N(CCC(=O)NCCNC(=N)N)Cc2ccccc2)nc1-c1ccc(Cl)c(Cl)c1` [I-197, 3-(benzyl(4-(3,4-dichlorophenyl)-5-isobutylthiazol-2-yl)amino)-N-(2-guanidinoethyl) propanamide] displayed an IC50 of 1000 to 10000 nM.
Under `CC(C)Cc1sc(N(CCC(=O)NCCCN)Cc2ccccc2)nc1-c1ccc(Cl)c(Cl)c1` [I-192] stands 1000 to 10000 nM; under `O=C(O)CCN(Cc1ccccc1)c1nc(-c2ccc(Cl)c(Cl)c2)c(Cn2ccnc2)s1` [I-122], 1000 to 10000 nM.
The result for `CC(C)Cc1sc(NCC(Cc2cnc(O)nc2)C(=O)O)nc1-c1ccc(Cl)c(Cl)c1` (stereo not shown) [I-159, 3-(4-(3,4-dichlorophenyl)-5-isobutylthiazol-2-ylamino)-2-((2-hydroxypyrimidin-5-yl)methyl)propanoic acid] reads 1000 to 10000 nM; that for `CC(C)Cc1sc(Nc2ccc(-c3ccccc3)cc2C(=O)O)nc1-c1ccc(Cl)c(Cl)c1` [I-235], no more than 1000 nM.
In the case of `O=C(O)CCN(Cc1ccccc1)c1nc(-c2ccc(Cl)c(Cl)c2)c(CN2CCC2)s1` [I-130], the IC50 was greater than 10000 nM.
The compound `CC(C)c1sc(Nc2c(C(=O)O)sc3ccccc23)nc1-c1ccc(Cl)c(Cl)c1` [I-280] came in with an IC50 of no more than 1000 nM.
Turning to `O=C(O)C(CNc1nc(-c2ccc(Cl)c(Cl)c2)c(C2CC2)s1)Cc1cccc(F)c1` (stereo not shown) [I-14], the half-inhibitory concentration (IC50) lay in the range of 1000 to 10000 nM.
The result for `CC(C)Cc1sc(N(CCCCN)CCC(=O)O)nc1-c1ccc(Cl)c(Cl)c1` [I-146, 3-((4-aminobutyl)(4-(3,4-dichlorophenyl)-5-isobutylthiazol-2-yl)amino)propanoic acid] reads greater than 10000 nM.

These data come from patent publication US11753403B2, “EIF4E inhibitors and uses thereof” (PIC Therapeutics, Inc., priority 2020, dated 2023).
